Measured values from ChEMBL document CHEMBL5321213, “Nicolaioidesin C: An Antiausterity Agent Shows Promising Antitumor Activity in a Pancreatic Cancer Xenograft Mouse Model” (J Nat Prod, 2023).
Active and inactive are the calls of the source. No cut-off for these calls is given here.

How the values were obtained:
[1] = test system: PANC-1; assay: Inhibition of Akt/mTOR signaling pathway in human PANC-1 cells in nutrient-deprived medium assessed as reduction in AKT phosphorylation at S473 residue measured after 6 hrs by Western blot analysis; assay type: cell-based; conditions: dose 5-20 µM
[2] = Toxicity in athymic BALB/c-nu mouse xenografted with human MIA PaCa-2 cells assessed as body weight loss at 2 to 10 mg/kg/day, ip administered five times per week for 4 weeks; assay type: organism-based; conditions: in vivo, 672 h, dose 2-10 mg/kg/day
[3] = test system: MIA PaCa-2; assay: Antitumor activity against human MIA PaCa-2 cells xenografted in athymic BALB/c-nu mouse assessed as fold change in benzoic acid level in tumor at 10 mg/kg/day, ip administered five times per week for 4 weeks by LC-MS analysis; assay type: functional
[4] = test system: MIA PaCa-2; assay: Antitumor activity against human MIA PaCa-2 cells xenografted in athymic BALB/c-nu mouse assessed as fold change in glutamic acid level in tumor at 10 mg/kg/day, ip administered five times per week for 4 weeks by LC-MS analysis; assay type: functional
[5] = test system: MIA PaCa-2; assay: Antitumor activity against human MIA PaCa-2 cells xenografted in athymic BALB/c-nu mouse assessed as fold change in 3-sulfolactic acid level in tumor at 2 mg/kg/day, ip administered five times per week for 4 weeks by LC-MS analysis; assay type: functional
[6] = test system: MIA PaCa-2; assay: Antitumor activity against human MIA PaCa-2 cells xenografted in athymic BALB/c-nu mouse assessed as fold change in hypoxanthine level in tumor at 10 mg/kg/day, ip administered five times per week for 4 weeks by LC-MS analysis; assay type: functional
[7] = test system: MIA PaCa-2; assay: Antitumor activity against human MIA PaCa-2 cells xenografted in athymic BALB/c-nu mouse assessed as fold change in D-ribulose 5-phosphate level in tumor at 2 mg/kg/day, ip administered five times per week for 4 weeks by LC-MS analysis; assay type: functional
[8] = test system: MIA PaCa-2; assay: Antitumor activity against human MIA PaCa-2 cells xenografted in athymic BALB/c-nu mouse assessed as reduction in p-Akt level in tumor at 2 to 10 mg/kg/day, ip administered five times per week for 4 weeks by immunohistochemistry analysis; assay type: functional, organism-based; conditions: dose 2-10 mg/kg/day
[9] = test system: MIA PaCa-2; assay: Antitumor activity against human MIA PaCa-2 cells xenografted in athymic BALB/c-nu mouse assessed as fold change in sphinganine level in tumor at 10 mg/kg/day, ip administered five times per week for 4 weeks by LC-MS analysis; assay type: functional
[10] = test system: MIA PaCa-2; assay: Preferential cytotoxicity against human MIA PaCa-2 cells in nutrient-deprived medium assessed as alteration in cell morphology by measuring leakage of cell components at 5 uM measured after 24 hrs by acridine orange and ethidium bromide dual fluorescent staining based imaging analysis; assay type: functional
[11] = test system: MIA PaCa-2; assay: Antitumor activity against human MIA PaCa-2 cells xenografted in athymic BALB/c-nu mouse assessed as fold change in asparagine level in tumor at 2 mg/kg/day, ip administered five times per week for 4 weeks by LC-MS analysis; assay type: functional
[12] = test system: MIA PaCa-2; assay: Inhibition of Akt/mTOR signaling pathway in human MIA PaCa-2 cells in nutrient-deprived medium assessed as reduction in AKT phosphorylation at S473 residue measured after 6 hrs by Western blot analysis; assay type: cell-based; conditions: dose 5-20 µM
[13] = test system: MIA PaCa-2; assay: Antitumor activity against human MIA PaCa-2 cells xenografted in athymic BALB/c-nu mouse assessed as tumor growth inhibition at 10 mg/kg/day, ip administered five times per week for 4 weeks relative to control; assay type: functional; conditions: MIA PaCa-2, 672 h, read-out: TGI
[14] = test system: MIA PaCa-2; assay: Inhibition of Akt/mTOR signaling pathway in human MIA PaCa-2 cells in DMEM media assessed as reduction in mTOR phosphorylation at S2481 residue at 5 to 20 uM measured after 6 hrs by Western blot analysis; assay type: cell-based; conditions: dose 5-20 µM
[15] = test system: MIA PaCa-2; assay: Antitumor activity against human MIA PaCa-2 cells xenografted in athymic BALB/c-nu mouse assessed as fold change in tyrosine level in tumor at 10 mg/kg/day, ip administered five times per week for 4 weeks by LC-MS analysis; assay type: functional
[16] = test system: MIA PaCa-2; assay: Inhibition of Akt/mTOR signaling pathway in human MIA PaCa-2 cells in DMEM media assessed as reduction in AKT phosphorylation at S473 residue at 5 to 20 uM measured after 6 hrs by Western blot analysis; assay type: cell-based; conditions: dose 5-20 µM
[17] = test system: MIA PaCa-2; assay: Antitumor activity against human MIA PaCa-2 cells xenografted in athymic BALB/c-nu mouse assessed as fold change in desthiobiotin level in tumor at 10 mg/kg/day, ip administered five times per week for 4 weeks by LC-MS analysis; assay type: functional
[18] = test system: MIA PaCa-2; assay: Antitumor activity against human MIA PaCa-2 cells xenografted in athymic BALB/c-nu mouse assessed as tumor growth inhibition at 2 mg/kg/day, ip administered five times per week for 4 weeks relative to control; assay type: functional; conditions: MIA PaCa-2, 672 h, read-out: TGI
[19] = test system: MIA PaCa-2; assay: Antitumor activity against human MIA PaCa-2 cells xenografted in athymic BALB/c-nu mouse assessed as fold change in glycerol-3-phosphate level in tumor at 10 mg/kg/day, ip administered five times per week for 4 weeks by LC-MS analysis; assay type: functional
[20] = test system: MIA PaCa-2; assay: Antitumor activity against human MIA PaCa-2 cells xenografted in athymic BALB/c-nu mouse assessed as fold change in lysine level in tumor at 2 mg/kg/day, ip administered five times per week for 4 weeks by LC-MS analysis; assay type: functional
[21] = test system: MIA PaCa-2; assay: Antitumor activity against human MIA PaCa-2 cells xenografted in athymic BALB/c-nu mouse assessed as fold change in nicotinamide level in tumor at 2 mg/kg/day, ip administered five times per week for 4 weeks by LC-MS analysis; assay type: functional
[22] = test system: MIA PaCa-2; assay: Antitumor activity against human MIA PaCa-2 cells xenografted in athymic BALB/c-nu mouse assessed as fold change in cytidine 5'-monophosphate-Neu5Ac level in tumor at 2 mg/kg/day, ip administered five times per week for 4 weeks by LC-MS analysis; assay type: functional
[23] = test system: MIA PaCa-2; assay: Antitumor activity against human MIA PaCa-2 cells xenografted in athymic BALB/c-nu mouse assessed as fold change in cytidine diphosphate ethanolamine level in tumor at 2 mg/kg/day, ip administered five times per week for 4 weeks by LC-MS analysis; assay type: functional
[24] = test system: MIA PaCa-2; assay: Antitumor activity against human MIA PaCa-2 cells xenografted in athymic BALB/c-nu mouse assessed as fold change in alanine level in tumor at 10 mg/kg/day, ip administered five times per week for 4 weeks by LC-MS analysis; assay type: functional
[25] = test system: MIA PaCa-2; assay: Antitumor activity against human MIA PaCa-2 cells xenografted in athymic BALB/c-nu mouse assessed as reduction in LC3-II level in tumor at 2 to 10 mg/kg/day, ip administered five times per week for 4 weeks by immunohistochemistry analysis; assay type: functional, organism-based; conditions: dose 2-10 mg/kg/day
[26] = test system: MIA PaCa-2; assay: Antitumor activity against human MIA PaCa-2 cells xenografted in athymic BALB/c-nu mouse assessed as reduction in p-mTOR level in tumor at 2 to 10 mg/kg/day, ip administered five times per week for 4 weeks by immunohistochemistry analysis; assay type: functional, organism-based; conditions: dose 2-10 mg/kg/day
[27] = test system: MIA PaCa-2; assay: Antitumor activity against human MIA PaCa-2 cells xenografted in athymic BALB/c-nu mouse assessed as fold change in lysine level in tumor at 10 mg/kg/day, ip administered five times per week for 4 weeks by LC-MS analysis; assay type: functional
[28] = test system: MIA PaCa-2; assay: Antimetastatic activity in human MIA PaCa-2 cells in nutrient-rich medium assessed as open wound area at 20 uM measured every 15 mins for 24 hrs by live cell imaging analysis (reference value: 62%); assay type: functional

## COc1cc(O)c(C(=O)[C@@H]2CC=C(CCC=C(C)C)C[C@H]2c2ccccc2)c(O)c1
[1]
  inhibition: Dose-Dependent Effect
[2]
  Activity: Non-Toxic
[3]
  fold change (FC): 0.43
[4]
  fold change (FC): 0.25
[5]
  fold change (FC): 0.48
[6]
  fold change (FC): 0.4
[7]
  fold change (FC): 0.22
[8]
  Activity: Active
[9]
  fold change (FC): 3.68
[10]
  Activity: Active
[11]
  fold change (FC): 0.33
[12]
  inhibition: Dose-Dependent Effect
[13]
  inhibition in vivo at 10 mg/kg/day: 68%
[14]
  inhibition: inactive
[15]
  fold change (FC): 0.43
[16]
  inhibition: inactive
[17]
  fold change (FC): 0.4
[18]
  inhibition in vivo at 2 mg/kg/day: 51%
[19]
  fold change (FC): 0.24
[20]
  fold change (FC): 0.32
[21]
  fold change (FC): 0.52
[22]
  fold change (FC): 0.43
[23]
  fold change (FC): 0.4
[24]
  fold change (FC): 0.42
[25]
  Activity: Active
[26]
  Activity: Active
[27]
  fold change (FC): 0.29
[28]
  Activity: 87%
